Measurements taken from paper PMC4279419, “Angiostatic, tumor inflammatory and anti-tumor effects of CXCL4^47–70 and CXCL4L1^47–70 in an EGF-dependent breast cancer model” (Oncotarget, 2014).
Where no end group is shown, it is not given here.

How the values were obtained:
[1] = system: EGF; experiment: EGF binding (heterodimerization) assay in 96-well plates; design: species or system human; conditions: amino-terminally biotinylated peptides; 37 °C; 2 μg/ml EGF coated; OD450; n=3
Protocol: GAG, EGF and CCL5 binding were quantified in 96-well plates following a similar protocol. GAG binding was evaluated by immobilizing low molecular weight heparin (Iduron, Manchester, UK) on EpranEx plates (BD Biosciences), whereas EGF as well as CCL5 recombinant human protein (R&D Systems and PeproTech, respectively) was immobilized on high protein-binding ELISA plates (Corning life sciences, Tewksbury, MA). In brief, 25 μg/ml GAG [diluted in assay buffer 100 mM NaCl, 50 mM NaAc, pH 7.2, and 0.2% (v/v) Tween-20], 2 μg/ml EGF or 50 ng/ml CCL5 (both diluted in PBS), was coated overnight at room temperature on 96-well plates. Plates were washed three times with either assay buffer or 0.5% (v/v) Tween 20 in PBS and blocked at 37°C with buffer enriched with either 0.2% (w/v) gelatin (heparin binding assay) or 0.1% (w/v) casein (EGF or CCL5 binding assay). Subsequently, a dilution curve of biotinylated CXCL4L1^47–70 and CXCL4^47–70 peptide was pipetted on the plate and incubated at 37 °C to allow interaction with heparin, EGF or CCL5. After washing, retained biotinylated peptide was detected by peroxidase-conjugated streptavidin. Peroxidase activity was quantified by measuring the conversion of 3,3′,5,5′-tetramethylbenzidine (Sigma-Aldrich) at 450 nm.

[2] = system: macrophage markers; experiment: qPCR tumor macrophage marker expression; type: in vivo, murine; conditions: 2.5 μg intratumoral 3×/week; 2^−ΔΔCT
Protocol: (§1) The RNeasy Mini Kit (QIAGEN, Venlo, the Netherlands) was used for tumor mRNA extraction. The extracted mRNA was then converted to cDNA making use of the High Capacity cDNA Reverse Transcription Kit (Applied Biosystems, Foster City, CA). Quantitative polymerase chain reactions (qPCR) based on the TaqMan principle were conducted to compare gene expression between samples. Primers and probes (Table 2; Integrated DNA Technologies, Haasrode, Belgium), were diluted to the prescribed working concentrations in RNase-free water and added to the reaction mix in a MicroAmp® fast optical 96-well reaction plate (Applied Biosystems), together with 50 ng sample cDNA per reaction. The actual thermocycler program consisted of 2 minutes on 50 °C, 10 minutes on 95 °C and 40 cycles of 15 seconds on 95 °C followed by 1 minute on 60 °C. Analysis of the obtained CT was based on the 2^−ΔΔC^T method, opting for 18S ribosomal 1 RNA as an internal control.

[3] = system: B16 melanoma; conditions: previous study by our group; cited from earlier work
Description: The chemokines CXCL4 and CXCL4L1 have both been attributed anti-tumoral activity as a result of angiostatic action, blockade of lymphatic vessel formation and the attraction of anti-tumoral lymphocytes. CXCL4L1 is considered to be a more powerful angiostatic and anti-tumoral agent than its homologue CXCL4, despite their striking 96% sequence identity. This functional difference has been linked to a single amino acid replacement, causing CXCL4L1 to adapt a unique carboxy-terminal 3D-structure with decreased affinity for GAGs. However, the causal link ...

[4] = system: F4/80^+ cells in MDA-MB-231 tumors; experiment: Flow cytometry of intratumoral F4/80^+ cells; type: in vivo, mice; conditions: 2.5 μg intratumoral 3×/week; n=9; control 6.85 ± 1.18% (n=10)
Protocol: For flow cytometry, single cell suspensions were prepared from tumor biopsies using a MACS dissociator (Myltenyi Biotec, Bergisch Gladbach, Germany) and a mixture of collagenase A and dispase. Remaining cell clumps were removed by passing the cell suspension through a nylon cell strainer (70 μm mesh). Remaining red blood cells were lysed in ACK lysis buffer (0.15 M NH4Cl, 0.1 mM Na2EDTA, 10 mM KHCO3; pH = 7.2). Subsequently monocytes were identified by flow cytometry using specific antibodies, namely rat anti-mouse F4/80-PE antibody (eBiosciences, San Diego, CA).

[5] = system: endothelial cell; conditions: cited from earlier work
Protocol: We investigated whether CXCL4^47–70 and CXCL4L1^47–70 counteracted other growth factors with similar efficiency. Consistent with previous work, both CXCL4^47–70 and CXCL4L1^47–70 (0.4 μg/ml) reduced FGF2-induced GM7373 prolifera ...

[6] = system: CD204; experiment: qPCR tumor CD204 mRNA (M2 marker); type: in vivo, murine; conditions: 2.5 μg intratumoral 3×/week; 2^−ΔΔCT
Protocol: as §1

[7] = system: CD11c; experiment: qPCR tumor CD11c mRNA (dendritic cell marker); type: in vivo, murine; conditions: 2.5 μg intratumoral 3×/week; 2^−ΔΔCT; p=0.032, n=10
Protocol: as §1

[8] = system: muCCL5; experiment: qPCR stromal CCL5 mRNA; type: in vivo, murine; conditions: 2.5 μg intratumoral 3×/week; 2^−ΔΔCT; p=0.020, n=7
Protocol: as §1

[9] = system: monocytic THP-1; conditions: as a single stimulus; cited from earlier work
Description: Perception of the role of the immune system in tumor development has changed over time. Tumor inflammation is indeed the seventh hallmark of malignant disease, but the sizeable myeloid population present has been mostly observed to take on a tumor-promoting role rather than exert its protective, phagocytic and cytotoxic function. This shift could be attributed to the phagocytes' versatility and their ability to adopt distinct phenotypes influenced by locally produced factors. Rather than depleting the tumoral myeloid cell population, it could be beneficial to tackle its pola ...

[10] = system: TGM2; experiment: qPCR tumor TGM2 mRNA (M2 marker); type: in vivo, murine; conditions: 2.5 μg intratumoral 3×/week; 2^−ΔΔCT
Protocol: as §1

[11] = system: IL-12; experiment: qPCR tumor IL-12 mRNA (M1 marker); type: in vivo, murine; conditions: 2.5 μg intratumoral 3×/week; 2^−ΔΔCT; not reaching statistical significance
Protocol: as §1

[12] = system: F4/80; experiment: qPCR tumor F4/80 mRNA; type: in vivo, murine; conditions: 2.5 μg intratumoral 3×/week; 2^−ΔΔCT; p=0.008, n=10
Protocol: as §1

[13] = system: NOS2; experiment: qPCR tumor NOS2 mRNA (M1 marker); type: in vivo, murine; conditions: 2.5 μg intratumoral 3×/week; 2^−ΔΔCT; not reaching statistical significance
Protocol: as §1

[14] = system: IFN-γ; experiment: qPCR tumor IFN-γ mRNA; type: in vivo, murine; conditions: 2.5 μg intratumoral 3×/week; 2^−ΔΔCT
Protocol: as §1

binding to EGF-coated plate [1]	Substance	macrophage marker expression versus vehicle [2]	effect in treatment of B16 melanoma [3]	intratumoral F4/80^+ cells [4] [%]	block of FGF2-induced endothelial cell motility and proliferation [5]	CD204 mRNA versus control [6]	CD11c mRNA versus vehicle [7]	stromal CCL5 expression versus vehicle [8]	THP-1 migration, single stimulus [9]	TGM2 mRNA versus control [10]	IL-12 mRNA versus control [11]	F4/80 mRNA level versus control [12]	NOS2 mRNA versus control [13]	IFN-γ mRNA versus vehicle [14]
equally well in a dose-dependent manner	CXCL4L1^47–70: synthetic human carboxy-terminal peptide restricted to the last 24 amino acids of CXCL4L1, Fmoc chemistry	No significant changes in macrophage marker expression	beneficial effects of CXCL4L1^47–70	7.74 ± 1.35	retained the ability to block FGF2-induced endothelial cell motility and proliferation	–	–	–	–	–	–	–	–	–
equally well in a dose-dependent manner	CXCL4^47–70: synthetic human carboxy-terminal peptide restricted to the last 24 amino acids of CXCL4, Fmoc chemistry (NGRKICLDLQAPLYKKIIKKLLES; not fully specified (N-terminus))	–	–	–	retained the ability to block FGF2-induced endothelial cell motility and proliferation	only a modest increase	more prominent	significantly upregulated	not to stimulate monocytic THP-1 migration	only a modest increase	only modestly increased	significantly higher	only modestly increased	significantly elevated expression
